{"source": "patent US12384852B2", "about": "“Genetically modified NK-92 cells having a safety switch” (ImmunityBio, Inc., priority 2015, dated 2025)", "key": {"[1]": {"settings": "clinical studies; cited from earlier work"}, "NK-92-TK-CD16-IL-2 cells": {"tested_on": "NK-92-TK-CD16-IL-2 cells", "test": "Functionality of the TK suicide gene: ganciclovir treatment of mice carrying NK-92-TK-CD16-IL-2 cells", "type": "in vivo, SCID mice", "settings": "ganciclovir 50 μg i.p. every other day, two or three doses; within 24 hours to 72 hours", "procedure": "The mice in the first group are treated with two or three doses of ganciclovir (50 μg) intraperitoneally every other day. The mice in the second group are treated with placebo. […] Expansion of NK-92-TK-CD16-IL-2 cells continues to increase over time in mice treated with placebo."}}, "data": [{"molecule": "CC[C@H](C(=O)N1CCCC[C@H]1C(=O)O[C@H](CCc1ccc(OC)c(OC)c1)c1cccc(OCC(=O)NCCNC(=O)COc2cccc([C@@H](CCc3ccc(OC)c(OC)c3)OC(=O)[C@@H]3CCCCN3C(=O)[C@@H](CC)c3cc(OC)c(OC)c(OC)c3)c2)c1)c1cc(OC)c(OC)c(OC)c1", "note": "[AP1903]", "values": [{"measurement": "tolerability", "setting": "[1]", "value": "well tolerated"}]}, {"molecule": "Nc1nc(O)c2ncn(COC(CO)CO)c2n1", "note": "[ganciclovir]", "values": [{"measurement": "change in NK-92-TK-CD16-IL-2 cells", "setting": "NK-92-TK-CD16-IL-2 cells", "value": "significant reduction"}]}]}
